Experimental data reported in ChEMBL document CHEMBL2407022, “Advancement of Imidazo[1,2-a]pyridines with Improved Pharmacokinetics and Nanomolar Activity Against Mycobacterium tuberculosis” (ACS Med Chem Lett, 2013).
In brackets after ≈: the same amount, converted by molar mass.

Key:
Assay type in all cases: functional
Details in all cases: 336 h
[1] = system: Mycobacterium tuberculosis; test: Antimycobacterial activity against isoniazid, rifampin, ethambutol, kanamycin and ofloxacin-resistant Mycobacterium tuberculosis after 14 days
[2] = system: Mycobacterium tuberculosis; test: Antimycobacterial activity against isoniazid, rifampin, ethambutol, streptomycin, kanamycin and ofloxacin-resistant Mycobacterium tuberculosis after 14 days
[3] = system: Mycobacterium tuberculosis; test: Antimycobacterial activity against isoniazid, rifampin, ethambutol, kanamycin and rifabutin-resistant Mycobacterium tuberculosis after 14 days

Row | SMILES | MIC99 [1] | MIC99 [2] | MIC99 [3]
1 | Cc1ccc2nc(C)c(C(=O)NCc3ccccc3)n2c1 | < 0.04 µM | < 0.04 µM | 2.3 µM (≈ 0.642 µg/mL)
2 | Cc1ccn2c(C(=O)NCc3ncc(C(F)(F)F)cc3Cl)c(C)nc2c1 | – | 0.8 µM (≈ 0.306 µg/mL) | 13 µM (≈ 4.98 µg/mL)
3 | Cc1ccn2c(C(=O)NCc3ccc(Oc4ccc(F)cc4)cc3)c(C)nc2c1 | < 0.03 µM | < 0.03 µM | 0.8 µM (≈ 0.312 µg/mL)
4 | O=[N+]([O-])c1cn2c(n1)OC[C@@H](OCc1ccc(OC(F)(F)F)cc1)C2 [PRETOMANID] | 0.2 µM (≈ 0.0719 µg/mL) | 0.9 µM (≈ 0.323 µg/mL) | 0.5 µM (≈ 0.18 µg/mL)
